The text below walks through data of PMC8881512 (Nature Communications, 2022).

“And” between values parts separate entries of the source, which are not always exact repeats. Equal entries are not always repeated.

The target of assay [1] is T1, CAMKK1 (Homo sapiens, UniProt Q8N5S9).
T1 construct: LATS1/LATS2 enzymes from Signalchem
In words: Kinome profiling. It is filed as biochemical. The settings on record: VT02956 (5 nM), read-out: % enzymatic activity relative to DMSO controls.

Assay [2] has as its target T2, LATS2 (Homo sapiens, UniProt Q9NRM7).
T2 construct: purchased Signalchem
T2 sequence (Q9NRM7 1-1088): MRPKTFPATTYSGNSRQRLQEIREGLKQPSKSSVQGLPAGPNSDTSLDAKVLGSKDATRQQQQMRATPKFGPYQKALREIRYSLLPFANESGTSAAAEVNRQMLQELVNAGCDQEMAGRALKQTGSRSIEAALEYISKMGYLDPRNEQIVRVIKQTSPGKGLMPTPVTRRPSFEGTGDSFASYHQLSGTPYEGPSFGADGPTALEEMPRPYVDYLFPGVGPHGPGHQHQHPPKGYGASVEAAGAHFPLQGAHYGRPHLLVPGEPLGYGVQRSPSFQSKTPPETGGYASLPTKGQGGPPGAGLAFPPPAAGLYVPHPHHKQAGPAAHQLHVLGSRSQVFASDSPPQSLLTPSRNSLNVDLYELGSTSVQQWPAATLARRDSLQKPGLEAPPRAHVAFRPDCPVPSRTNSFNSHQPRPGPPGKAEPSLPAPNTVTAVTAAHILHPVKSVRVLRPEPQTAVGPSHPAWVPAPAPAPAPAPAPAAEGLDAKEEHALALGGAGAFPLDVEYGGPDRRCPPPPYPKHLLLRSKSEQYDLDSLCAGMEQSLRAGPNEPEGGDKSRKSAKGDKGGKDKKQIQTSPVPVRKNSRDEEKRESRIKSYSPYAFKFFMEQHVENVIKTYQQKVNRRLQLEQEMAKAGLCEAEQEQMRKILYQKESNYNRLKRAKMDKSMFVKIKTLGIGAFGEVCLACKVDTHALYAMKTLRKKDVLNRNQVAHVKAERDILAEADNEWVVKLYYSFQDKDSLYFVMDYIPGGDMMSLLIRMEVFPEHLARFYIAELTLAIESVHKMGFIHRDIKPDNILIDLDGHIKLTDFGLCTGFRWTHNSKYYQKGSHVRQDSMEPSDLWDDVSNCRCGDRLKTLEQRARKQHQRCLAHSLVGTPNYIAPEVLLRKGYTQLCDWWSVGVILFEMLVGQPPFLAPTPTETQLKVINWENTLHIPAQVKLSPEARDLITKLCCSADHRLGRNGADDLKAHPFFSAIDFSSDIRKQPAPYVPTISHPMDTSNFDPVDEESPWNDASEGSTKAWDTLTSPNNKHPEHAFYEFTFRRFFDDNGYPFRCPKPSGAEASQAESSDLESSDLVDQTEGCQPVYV
The experiment in a line: In vitro LATS2 kinase inhibition assay (HTRF). The assay is classed as biochemical. On the set-up: key to LATS2 kinase activity: % inhibition = (HIGH − ratio)×100/(HIGH − LOW). The settings on record: for LATS2 kinase activity: Fig.5c; for IC50: in vitro, 6000 μM ATP, n = 2. The method, then:
The kinase activity of LATS1 and LATS2 were performed based on an adapted and optimised HTRF Kinase Binding assay (Cisbio). Briefly, the concentration-response curves with compound concentration range of 10,000 to 0.17 nM with 3-fold serial dilution and 1X Kinase enzymatic buffer (Cisbio), 1.2 nM LATS1 or LATS2 kinases (Signalchem), 0.5 μM biotinylation labelled YAP peptide (Vivace) were dispensed into 384-well microplates by automated digital dispenser Echo/POD with the final DMSO concentration in all wells at 0.5%. To start the enzymatic reaction, 3000 μM ATP (for LATS1) or 6000 μM ATP (for LATS2) were added using multidrop in a 10-μl volume and incubated for 90 min at 30 °C. Subsequently, 10 μl of HTRF KinEASE detection buffer (Cisbio) containing 31.25 nM acceptor conjugate (streptavidin-XL665) and 1:100 donor conjugate (TK antibody labelled with Eu^3+-Cryptate) mixture were added and incubated at RT for 60 min, and the fluorescence emission at two different wavelengths was measured (615 nm and 665 nm) on Envision. […] The inhibition was calculated by the formula, inhibition % = (HIGH − ratio) × 100/ (High − LOW). HIGH control stands for 0.5% DMSO with kinase and LOW control stands for 0.5% DMSO without kinase. The data was analysed by Xlfit software. The IC50 values were determined by fitting to a standard four-parameter logistic using GraphPad Prism.
A general note: Time-resolved FRET reads energy transfer from a long-lived donor to a nearby acceptor.

Assay [3] relates to ERα, YAP/TAZ phosphorylation in MCF-7 cells. The experiment in a line: Immunoblot analysis, MCF-7 cells. The assay is classed as cell-based, human. The conditions noted are these: MCF-7; 0.1, 0.5 and 2 μM for 2 days; Fig. 5f. For orientation: A western blot detects proteins with antibodies after separation by electrophoresis.
In assay [4] the test system is 4T1 cells. In words: Cell viability, 4T1. It is filed as cell-based.
Assay [5] deals with MCF-7 cells. In words: Colony-formation assay, MCF-7 (wild-type and ESR1 knock-in). It is filed as cell-based, human. The settings on record: for Rel. colony (colony-formation assay): MCF-7, VT02956 (2 μM), VT02484 (2 μM) or Palbociclib (0.1 μM) alone or in combinations, Fig.6d; for Relative colony formation: 1 μM 4OHT, 0.2 μM Fulvestrant, 2 μM VT02956, 2 μM VT02484, Fig.6g. The procedure:
[…] The drugs were refreshed every 2–4 days. The colonies were then fixed with 4% paraformaldehyde for 15 min and stained with 0.1% crystal violet in 20% methanol solution for quantification.

In assay [6] the target is T3, STK38L/NDR2 (Homo sapiens, UniProt Q9Y2H1).
T3 construct: LATS1/LATS2 enzymes from Signalchem
In words: Kinome profiling. It is filed as biochemical. The conditions noted are these: VT02956 (5 nM), read-out: % enzymatic activity relative to DMSO controls.

In assay [7] the target is T4, MSK1/RPS6KA5 (Homo sapiens, UniProt O75582).
T4 construct: LATS1/LATS2 enzymes from Signalchem
The experiment in a line: Kinome profiling. It is filed as biochemical. The conditions noted are these: VT02956 (5 nM), read-out: % enzymatic activity relative to DMSO controls.

For assay [8], the target named is T5, PRKX (Homo sapiens, UniProt P51817).
T5 construct: LATS1/LATS2 enzymes from Signalchem
The experiment in a line: Kinome profiling. The settings on record: VT02956 (5 nM), read-out: % enzymatic activity relative to DMSO controls. It is filed as biochemical.

The target of assay [9] is T6, MSK2/RPS6KA4 (Homo sapiens, UniProt O75676).
T6 construct: LATS1/LATS2 enzymes from Signalchem
The experiment in a line: Kinome profiling. It is filed as biochemical. The settings on record: VT02956 (5 nM), read-out: % enzymatic activity relative to DMSO controls.

Assay [10] has as its system YAP target, ESR1 and ERα target gene mRNA in T47D cells. The experiment in a line: qPCR gene expression in T47D cells. The conditions noted are these: 2 µM for 2 days; for ANKRD1 mRNA (qPCR, relative to DMSO) / LATS2 mRNA (qPCR, relative to DMSO) / VGLL3 mRNA (qPCR, relative to DMSO): sheet Fig.s7c (Supplementary Fig. 7d); for ESR1 mRNA (qPCR, relative to DMSO) / GREB1 mRNA (qPCR, relative to DMSO) / TFF1 mRNA (qPCR, relative to DMSO): sheet Fig.s7e (Supplementary Fig. 7f). The assay is classed as cell-based, human. The source says:
PCR primer pairs included
(In qPCR the cycle at which signal appears reflects the starting amount.)

The target of assay [11] is T7, p70S6Kb/RPS6KB2 (Homo sapiens, UniProt Q9UBS0).
T7 construct: LATS1/LATS2 enzymes from Signalchem
In words: Kinome profiling. It is filed as biochemical. The settings on record: VT02956 (5 nM), read-out: % enzymatic activity relative to DMSO controls.

T5 sequence (P51817 whole entry): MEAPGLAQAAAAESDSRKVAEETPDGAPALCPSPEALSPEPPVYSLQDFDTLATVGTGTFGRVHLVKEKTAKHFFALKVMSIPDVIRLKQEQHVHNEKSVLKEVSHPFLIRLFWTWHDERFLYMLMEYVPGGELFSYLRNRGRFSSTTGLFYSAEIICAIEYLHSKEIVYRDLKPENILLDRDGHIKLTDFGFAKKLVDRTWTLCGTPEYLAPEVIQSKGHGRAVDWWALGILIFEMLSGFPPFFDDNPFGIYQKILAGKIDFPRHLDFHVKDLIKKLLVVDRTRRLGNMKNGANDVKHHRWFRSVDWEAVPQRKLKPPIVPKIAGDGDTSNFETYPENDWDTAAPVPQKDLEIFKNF
T4 sequence (O75582 whole entry): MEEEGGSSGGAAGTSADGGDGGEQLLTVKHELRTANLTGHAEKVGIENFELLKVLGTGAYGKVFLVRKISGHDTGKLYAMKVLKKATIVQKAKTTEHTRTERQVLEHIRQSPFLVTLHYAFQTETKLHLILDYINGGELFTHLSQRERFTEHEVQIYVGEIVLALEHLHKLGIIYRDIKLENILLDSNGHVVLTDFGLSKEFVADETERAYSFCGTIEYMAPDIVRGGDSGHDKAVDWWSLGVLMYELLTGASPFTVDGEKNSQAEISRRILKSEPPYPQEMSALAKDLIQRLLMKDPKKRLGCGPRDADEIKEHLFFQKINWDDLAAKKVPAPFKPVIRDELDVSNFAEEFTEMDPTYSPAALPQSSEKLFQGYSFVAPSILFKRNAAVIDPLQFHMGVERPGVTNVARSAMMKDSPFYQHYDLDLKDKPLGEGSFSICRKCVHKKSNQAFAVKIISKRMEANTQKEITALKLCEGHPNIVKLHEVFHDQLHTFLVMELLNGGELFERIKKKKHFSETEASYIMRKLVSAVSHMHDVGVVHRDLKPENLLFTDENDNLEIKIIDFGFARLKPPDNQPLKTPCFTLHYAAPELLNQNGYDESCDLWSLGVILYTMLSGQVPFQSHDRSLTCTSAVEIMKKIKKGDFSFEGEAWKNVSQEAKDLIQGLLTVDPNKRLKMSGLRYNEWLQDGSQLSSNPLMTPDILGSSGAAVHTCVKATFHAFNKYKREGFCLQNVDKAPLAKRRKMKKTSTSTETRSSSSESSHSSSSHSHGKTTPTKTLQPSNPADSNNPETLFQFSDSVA
T1 sequence (Q8N5S9 whole entry): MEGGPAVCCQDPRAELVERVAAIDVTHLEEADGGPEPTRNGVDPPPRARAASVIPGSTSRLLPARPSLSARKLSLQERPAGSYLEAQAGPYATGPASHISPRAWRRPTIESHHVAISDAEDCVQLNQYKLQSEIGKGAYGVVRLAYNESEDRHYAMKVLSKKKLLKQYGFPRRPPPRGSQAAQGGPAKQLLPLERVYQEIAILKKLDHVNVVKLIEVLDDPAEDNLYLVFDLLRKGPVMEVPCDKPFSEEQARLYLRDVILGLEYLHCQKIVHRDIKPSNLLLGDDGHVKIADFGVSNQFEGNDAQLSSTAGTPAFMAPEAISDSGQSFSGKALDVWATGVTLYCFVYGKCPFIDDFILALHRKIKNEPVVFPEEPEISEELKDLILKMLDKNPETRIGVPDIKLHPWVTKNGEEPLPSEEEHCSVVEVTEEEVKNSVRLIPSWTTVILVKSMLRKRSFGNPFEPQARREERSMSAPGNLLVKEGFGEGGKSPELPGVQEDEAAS
T7 sequence (Q9UBS0 whole entry): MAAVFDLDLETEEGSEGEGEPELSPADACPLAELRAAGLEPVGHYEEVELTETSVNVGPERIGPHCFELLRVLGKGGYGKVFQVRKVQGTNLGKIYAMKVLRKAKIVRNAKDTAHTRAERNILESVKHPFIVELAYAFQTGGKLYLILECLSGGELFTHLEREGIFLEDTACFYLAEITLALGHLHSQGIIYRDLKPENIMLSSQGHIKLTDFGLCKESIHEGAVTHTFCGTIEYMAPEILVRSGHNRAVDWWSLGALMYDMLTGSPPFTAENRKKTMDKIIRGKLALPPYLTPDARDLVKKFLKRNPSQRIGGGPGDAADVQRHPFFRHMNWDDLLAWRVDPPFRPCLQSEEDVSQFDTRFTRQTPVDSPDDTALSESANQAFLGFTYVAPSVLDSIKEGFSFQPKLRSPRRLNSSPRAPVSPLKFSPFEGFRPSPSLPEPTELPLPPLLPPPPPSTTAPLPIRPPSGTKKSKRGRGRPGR
T3 sequence (Q9Y2H1 whole entry): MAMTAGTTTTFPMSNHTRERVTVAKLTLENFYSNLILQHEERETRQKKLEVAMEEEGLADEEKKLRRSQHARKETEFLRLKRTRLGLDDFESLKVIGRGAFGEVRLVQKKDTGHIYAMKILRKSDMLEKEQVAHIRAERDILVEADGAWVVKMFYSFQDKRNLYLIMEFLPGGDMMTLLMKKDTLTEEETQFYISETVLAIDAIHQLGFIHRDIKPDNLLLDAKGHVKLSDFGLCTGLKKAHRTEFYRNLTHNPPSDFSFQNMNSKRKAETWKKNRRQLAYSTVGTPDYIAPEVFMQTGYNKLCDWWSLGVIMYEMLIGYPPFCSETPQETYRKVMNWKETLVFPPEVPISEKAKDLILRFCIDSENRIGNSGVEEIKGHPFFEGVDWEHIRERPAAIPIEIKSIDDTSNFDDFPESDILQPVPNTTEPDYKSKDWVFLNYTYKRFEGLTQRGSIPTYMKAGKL
T6 sequence (O75676 whole entry): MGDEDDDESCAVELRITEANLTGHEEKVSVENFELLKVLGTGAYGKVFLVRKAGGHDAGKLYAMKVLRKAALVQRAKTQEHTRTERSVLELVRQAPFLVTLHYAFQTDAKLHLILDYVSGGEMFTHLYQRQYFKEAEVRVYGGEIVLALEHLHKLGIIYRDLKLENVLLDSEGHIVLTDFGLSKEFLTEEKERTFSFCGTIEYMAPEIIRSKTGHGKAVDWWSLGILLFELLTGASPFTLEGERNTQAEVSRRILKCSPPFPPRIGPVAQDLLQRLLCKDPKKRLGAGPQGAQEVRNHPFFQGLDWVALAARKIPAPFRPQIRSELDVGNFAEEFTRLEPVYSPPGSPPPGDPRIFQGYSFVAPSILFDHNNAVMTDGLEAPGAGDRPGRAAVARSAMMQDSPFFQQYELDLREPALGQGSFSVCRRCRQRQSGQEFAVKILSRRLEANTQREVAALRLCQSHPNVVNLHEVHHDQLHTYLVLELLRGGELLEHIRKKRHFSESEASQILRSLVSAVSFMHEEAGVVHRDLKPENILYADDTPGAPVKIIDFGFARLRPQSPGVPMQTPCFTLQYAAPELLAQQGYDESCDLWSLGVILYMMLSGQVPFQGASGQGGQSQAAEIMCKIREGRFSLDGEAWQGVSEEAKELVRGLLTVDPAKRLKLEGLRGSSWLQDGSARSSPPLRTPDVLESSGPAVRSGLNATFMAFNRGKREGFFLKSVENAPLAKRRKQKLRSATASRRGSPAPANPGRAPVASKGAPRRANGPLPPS

What is called IC50 is the concentration that gives 50% inhibition. `NCC1CCN(c2nc(-c3ccncc3)nc3c(C#CCO)cccc23)CC1` [VT02956]: the remaining activity at 0.005 µM was determined as 83% in [1]; 29% in assay [6]; 49% in [7]; 3% in [8]; 78% in assay [9]; 65% in assay [11]. Further, the LATS2 kinase activity is 60.6319 and 66.1157 in [2] (Conc. 0.00016935 (µM)); 35.6649 and 36.636 in assay [2] (Conc. 0.00050805 (µM)); 7.393 and 7.887 in assay [2] (Conc. 0.00152416 (µM)). Moreover, the half-inhibitory concentration (IC50) is 0.00052 µM in assay [2] and over 10 µM in [4] (Mus musculus, 4T1 cells, n = 2, read-out: Cell viability inhibition IC50). Moreover, the “YAP/TAZ dephosphorylation and ERα reduction (immunoblot)” value in [3] is “dose-dependently induces YAP/TAZ dephosphorylation and ERα reduction”. For the same compound, the “growth of ER negative breast cancer cells 4T1 (cell viability)” value in assay [4] (increasing concentrations of VT02956, Supplementary Fig. 8g) was “does not inhibit the growth”. Moreover, the “Rel. colony (colony-formation assay)” value in assay [5] was 0.41 and 0.36 and 0.33. Also, the Relative colony formation in assay [5] (MCF-7 ERa D538G knock-in) is 0.39 and 0.37 and 0.34; in assay [5] (MCF-7 ERa Y537S knock-in), 0.41 and 0.42 and 0.45; in assay [5] (MCF-7 WT), 0.32 and 0.27 and 0.35. In addition, the “ANKRD1 mRNA (qPCR, relative to DMSO)” value in [10] is 151.05 and 152.548 and 126.932. Besides, the “LATS2 mRNA (qPCR, relative to DMSO)” value in [10] was 2.078 and 1.8081 and 2.057. The “VGLL3 mRNA (qPCR, relative to DMSO)” value in assay [10] is 25.7059 and 26.0713 and 24.6224. Also, the “ESR1 mRNA (qPCR, relative to DMSO)” value in [10] was 0.1433 and 0.1061 and 0.1464. Also, in assay [10], the “GREB1 mRNA (qPCR, relative to DMSO)” value is 0.2102 and 0.1984 and 0.2087. Moreover, the “TFF1 mRNA (qPCR, relative to DMSO)” value in assay [10] is 0.06716 and 0.07329 and 0.06992.

Consider `CCN(CC)c1nc(-c2ccncc2)nc2c(-c3ccc(Cl)cc3)cccc12` [VT02484], for which the LATS2 kinase activity in [2] (Conc. 0.00016935 (µM)) is 96.8406 and 89.7881; in assay [2] (Conc. 0.00050805 (µM)), 86.8123 and 94.4369; in assay [2] (Conc. 0.00152416 (µM)) it was 95.4849 and 93.7686; in assay [2] (Conc. 0.00457247 (µM)), 92.5091 and 95.5041; in assay [2] (Conc. 0.0137174 (µM)), 94.4128 and 88.6006; in assay [2] (Conc. 0.0411523 (µM)), 86.8411 and 90.365. In addition, the LATS2 kinase activity in assay [2] (Conc. 0.123457 (µM)) was 93.2446 and 92.7206; in assay [2] (Conc. 0.37037 (µM)) it was 94.4513 and 95.1243; in [2] (Conc. 1.11111 (µM)), 88.3362 and 87.5718; in assay [2] (Conc. 3.33333 (µM)) it was 84.322 and 85.4373; in assay [2] (Conc. 10 (µM)), 81.6154 and 76.4186. In addition, the IC50 in assay [2] is over 10 µM. The “Rel. colony (colony-formation assay)” value in assay [5] is 0.94 and 1.05 and 1.08. The Relative colony formation is 1.12 and 1.04 and 1.03 in [5] (MCF-7 ERa D538G knock-in); 0.96 and 0.91 and 1.03 in assay [5] (MCF-7 ERa Y537S knock-in); 0.96 and 0.89 and 1.02 in assay [5] (MCF-7 WT). The “ANKRD1 mRNA (qPCR, relative to DMSO)” value in [10] is 0.9511 and 0.8877 and 0.7788. For the same compound, the “LATS2 mRNA (qPCR, relative to DMSO)” value in assay [10] was 1.062 and 1.257 and 1.047. The “VGLL3 mRNA (qPCR, relative to DMSO)” value in assay [10] was 1.036 and 0.9545 and 1.103. The “ESR1 mRNA (qPCR, relative to DMSO)” value in assay [10] is 1.074 and 0.8288 and 1.02. For the same compound, in assay [10], the “GREB1 mRNA (qPCR, relative to DMSO)” value is 1.002 and 1.049 and 0.9359. Besides, in [10], the “TFF1 mRNA (qPCR, relative to DMSO)” value was 1.09 and 1.077 and 1.0923.
